Consider 2 compounds from patent publication US11957649B2, “Methods and pharmaceutical preparations for elevating ketone utilization” (GLYKON TECHNOLOGIES GROUP, LLC, priority 2020, dated 2024).

Experiment [1] has as its target T1, pancreatic alpha-amylase (Homo sapiens, UniProt P04746).
T1 sequence (P04746 16-511): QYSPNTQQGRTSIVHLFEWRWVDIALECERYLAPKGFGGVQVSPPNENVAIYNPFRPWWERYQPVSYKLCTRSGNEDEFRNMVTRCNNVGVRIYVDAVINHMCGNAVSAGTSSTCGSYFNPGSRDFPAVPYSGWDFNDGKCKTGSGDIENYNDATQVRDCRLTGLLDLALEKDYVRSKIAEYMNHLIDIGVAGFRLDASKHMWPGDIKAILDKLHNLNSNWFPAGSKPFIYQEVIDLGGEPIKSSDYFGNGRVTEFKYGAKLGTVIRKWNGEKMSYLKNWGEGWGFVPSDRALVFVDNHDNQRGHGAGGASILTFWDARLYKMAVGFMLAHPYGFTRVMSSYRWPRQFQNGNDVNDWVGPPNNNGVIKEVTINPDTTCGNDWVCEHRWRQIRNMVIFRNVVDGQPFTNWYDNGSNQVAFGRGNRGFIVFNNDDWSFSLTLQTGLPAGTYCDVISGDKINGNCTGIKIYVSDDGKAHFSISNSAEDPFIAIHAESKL
To be noted: background statement, in vitro; cited from earlier work.

The subject of experiment [2] is intestinal alpha-glucosidase. The following applies: background statement, in vitro; cited from earlier work.
Experiment [3] can be described thus: fNIRS measurement of blood hemoglobin and oxygen saturation after oral administration. To be noted: overall statement on HCA administration. Format: in vivo, human. The procedure: Subjects 1-4 were orally administered the formulation of Example 1. The Subjects were given either one or two administrations of 8.33 ml of the aqueous formulation of Example 1 on an empty stomach, i.e. wherein with each 8.33 ml the subject received 2,500 mg of the potassium-magnesium (−)-hydroxycitric acid salt, corresponding to 1745 mg of (−)-hydroxycitric acid.
fNIRS testing (functional Near Infrared Spectroscopy) was used to measure blood hemoglobin and oxygen saturation. fNIRS can be used to determine real-time peripheral and cerebral hemodynamic responses. For example, relative changes in HbR (deoxygen saturation), HbO (oxygen saturation), and HbT (total hemoglobin concentration), etc. can be determined via application of Modified Beer Lambert Law. HbR, Hb=deoxygen saturation (shown as the thinnest and bottom dashed line in FIG. 1) HbO, HbO2=oxygen saturation (shown as the medium-thickness and middle line in FIG. 1) HbT=total hemoglobin concentration (shown as the darkest, thickest and top line in FIG. 1). On the graphs, time is in seconds.

Experiment [4] can be described thus: Blood levels of biomolecules before and 90 minutes after administration. Format: in vivo, human. Here is the method:
Subject 5 was a person, weighing approximately 285 pounds and with a normal fasting blood sugar level of 115-120. First, blood was drawn from Subject 5 and levels of various biomolecules were measured. Next, Subject 5 was administered 16.66 ml of the Example 1 formulation on an empty stomach, i.e. wherein with each 16.66 ml the subject received 5,000 mg of the potassium-magnesium (−)-hydroxycitric acid salt, corresponding to 3490 mg of (−)-hydroxycitric acid. 90 minutes after the administration, blood was drawn from Subject 5 and levels of the various biomolecules were remeasured.
Subject 6 was administered 16.66 ml of the Example 1 formulation on an empty stomach, i.e. wherein with each 16.66 ml the subject received 5,000 mg of the potassium-magnesium (−)-hydroxycitric acid salt, corresponding to 3490 mg of (−)-hydroxycitric acid. 90 minutes after the administration, blood was drawn from Subject 6 and levels of the various biomolecules were remeasured.

Experiment [5] addresses T2, ATP citrate lyase (Homo sapiens, UniProt P53396).
T2 sequence (P53396 1-1101): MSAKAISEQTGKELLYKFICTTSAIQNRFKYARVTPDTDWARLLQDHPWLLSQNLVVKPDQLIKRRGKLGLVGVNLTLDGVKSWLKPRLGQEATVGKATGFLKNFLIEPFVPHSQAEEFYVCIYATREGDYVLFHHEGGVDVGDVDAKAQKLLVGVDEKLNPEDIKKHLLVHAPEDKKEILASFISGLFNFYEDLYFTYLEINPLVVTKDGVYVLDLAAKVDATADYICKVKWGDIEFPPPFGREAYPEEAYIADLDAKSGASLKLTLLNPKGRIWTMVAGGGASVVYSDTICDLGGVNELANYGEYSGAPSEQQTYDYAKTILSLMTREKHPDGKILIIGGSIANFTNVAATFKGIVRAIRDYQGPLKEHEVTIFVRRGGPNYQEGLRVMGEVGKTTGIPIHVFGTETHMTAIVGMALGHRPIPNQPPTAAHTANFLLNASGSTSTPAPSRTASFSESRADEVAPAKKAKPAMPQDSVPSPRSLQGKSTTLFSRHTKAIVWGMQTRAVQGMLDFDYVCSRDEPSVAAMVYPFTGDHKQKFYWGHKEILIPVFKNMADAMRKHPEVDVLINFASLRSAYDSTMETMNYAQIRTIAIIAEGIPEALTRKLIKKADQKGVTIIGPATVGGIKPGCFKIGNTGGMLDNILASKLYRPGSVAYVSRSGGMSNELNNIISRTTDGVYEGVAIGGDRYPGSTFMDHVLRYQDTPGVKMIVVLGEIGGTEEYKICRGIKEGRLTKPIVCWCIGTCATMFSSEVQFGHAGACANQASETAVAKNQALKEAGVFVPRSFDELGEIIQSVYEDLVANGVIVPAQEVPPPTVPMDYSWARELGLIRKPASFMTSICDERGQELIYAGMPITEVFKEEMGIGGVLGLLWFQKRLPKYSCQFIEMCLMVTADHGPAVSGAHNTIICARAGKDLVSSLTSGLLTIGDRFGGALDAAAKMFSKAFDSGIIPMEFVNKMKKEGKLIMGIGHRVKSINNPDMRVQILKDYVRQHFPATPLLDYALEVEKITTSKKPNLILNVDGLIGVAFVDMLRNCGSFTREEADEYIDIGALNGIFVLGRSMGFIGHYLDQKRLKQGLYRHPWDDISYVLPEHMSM
To be noted: background statement; cited from earlier work.

[6] abbreviates: overall conclusion on HCA administration.

The structures appear in SMILES notation.

Take `O=C(O)C[C@](O)(C(=O)O)[C@H](O)C(=O)O` [(2S,3R)-HCA]: in experiment [1], the “inhibition of pancreatic alpha-amylase” value was “inhibits”. In experiment [2], the “inhibition of intestinal alpha-glucosidase” value is on record as “inhibits”.

`O=C(O)CC(O)(C(=O)O)C(O)C(=O)O` (stereo not shown) [HCA, 1,2-dihydroxypropane-1,2,3-tricarboxylic acid]: in experiment [3], the blood hemoglobin result is listed as “increased” and the oxygen saturation entry is on record as “increased”. Besides, the “Ketones Result” value in experiment [4] (Subject 5, 16.66 ml on empty stomach, 90 mins after administration, before (fasting) 0.6) was determined as 0.5. Also, in experiment [4] (setting [6]), the cortisol result is “decreased”, the levels of ketones result is reported as “relatively stable or slightly lower levels” and the triglycerides entry was “decreased”. The glucose result in experiment [4] (overall conclusion on HCA administration, in some cases transient) is given as “increased”. In experiment [5], the “inhibition of ATP citrate lyase” value was “competitive inhibitor”.
